These results are taken from US20100249027A1, “CRF CONJUGATES WITH EXTENDED HALF-LIVES” (priority 2007, published 2010).

Series [1] in a line: plasma concentration time profile of hCRF after single intravenous and single subcutaneous injection (ELISA). The class given is in vivo, Sprague-Dawley Crl:CD rats. The conditions noted are these: rat; for bioavailability: sc. The text has this: The objective of this study was to determine the plasma concentration time profile of hCRF following a single intravenous and a single subcutaneous injection in three groups of Sprague-Dawley Crl:CD® :R rats. […] For the intravenous portion of the study, each of the three dose groups consisted of 72 males. Each of these groups was divided into three sets of replicates. Seven days after the intravenous portion of the study, 61 of the 72 animals from each of the three dose groups were randomly selected for the subcutaneous portion of the study. Each dose group was divided into three sets of replicates. Blood samples were taken at multiple time points via orbital sinus bleeding. Following intravenous dosing, blood samples were collected at time points out to 24 hours post dose. Following subcutaneous dosing, blood samples were collected at time points out to 48 hours post dose. Blood samples were collected from three rats in each dose group for each time point. […] All of the surviving animals were euthanized on the third day following subcutaneous dosing.
Plasma samples were prepared and hCRF concentrations in the plasma samples were determine by an ELISA method. […] Pharmacokinetic analyses were conducted for this dose group using the limited data obtained.

For a further series, the target named is T1, CRF R1 (Homo sapiens, UniProt P34998).
T1 sequence (P34998 24-415): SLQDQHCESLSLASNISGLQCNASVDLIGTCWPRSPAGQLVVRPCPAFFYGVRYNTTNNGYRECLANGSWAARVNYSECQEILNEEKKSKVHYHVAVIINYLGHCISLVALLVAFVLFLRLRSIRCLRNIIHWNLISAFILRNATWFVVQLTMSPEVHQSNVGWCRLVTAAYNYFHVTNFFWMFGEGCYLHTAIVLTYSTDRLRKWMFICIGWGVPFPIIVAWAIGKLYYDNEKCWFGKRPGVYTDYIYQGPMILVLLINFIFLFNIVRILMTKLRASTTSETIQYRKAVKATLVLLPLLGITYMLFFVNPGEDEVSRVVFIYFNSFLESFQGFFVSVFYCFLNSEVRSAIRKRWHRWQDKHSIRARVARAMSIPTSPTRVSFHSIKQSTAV
The conditions noted are these: cited from earlier work.

Like-named read-outs stand apart in the source and are kept apart here. Where no end group is shown, it is not given here.

Usually AUC stands for the area under the concentration-time curve, a measure of exposure. Read a low AUC as low exposure. What is called Cmax is the highest concentration seen after dosing. For orientation: bioavailability means dose-corrected exposure relative to a reference, in per cent. The low end stands for little systemic uptake, the high end for much systemic uptake. In the case of `CC[C@H](C)[C@H](NC(=O)[C@@H](NC(=O)[C@H](CCC(=O)O)NC(=O)[C@H](CCSC)NC(=O)[C@H](CC(C)C)NC(=O)[C@H](CCCCN)NC(=O)[C@H](CCCNC(=N)N)NC(=O)[C@H](CC(N)=O)NC(=O)[C@H](CO)NC(=O)[C@H](Cc1c[nH]cn1)NC(=O)[C@H](C)NC(=O)[C@H](CCC(N)=O)NC(=O)[C@H](CCC(N)=O)NC(=O)[C@H](C)NC(=O)[C@H](CC(C)C)NC(=O)[C@H](CCC(N)=O)NC(=O)[C@H](CCC(=O)O)NC(=O)[C@H](C)NC(=O)[C@H](CCCNC(=N)N)NC(=O)[C@H](C)NC(=O)[C@H](CCSC)NC(=O)[C@H](CCC(=O)O)NC(=O)[C@H](CC(C)C)NC(=O)[C@@H](NC(=O)[C@H](CCC(=O)O)NC(=O)[C@H](CCCNC(=N)N)NC(=O)[C@H](CC(C)C)NC(=O)[C@H](CC(C)C)NC(=O)[C@H](Cc1c[nH]cn1)NC(=O)[C@H](Cc1ccccc1)NC(=O)[C@@H](NC(=O)[C@H](CC(C)C)NC(=O)[C@H](CC(=O)O)NC(=O)[C@H](CC(C)C)NC(=O)[C@H](CO)NC(=O)[C@@H](NC(=O)[C@@H]1CCCN1C(=O)[C@@H]1CCCN1C(=O)[C@H](CCC(=O)O)NC(=O)[C@H](CCC(=O)O)NC(=O)[C@@H](N)CO)[C@@H](C)CC)[C@@H](C)O)C(C)C)[C@@H](C)CC)C(N)=O` [hCRF], the AUC in series [1] (in vivo, 10 ug/kg, IV) was 0.0055 µg·h/mL; in series [1] (in vivo, 100 ug/kg, IV) it was 0.516 µg·h/mL; in series [1] (in vivo, 100 ug/kg, SC) it was 0.214 µg·h/mL; in series [1] (in vivo, 1000 ug/kg, SC), 1.79 µg·h/mL; in series [1] (in vivo, IV, 1,000 μg/kg), 4.88 µg·h/mL. In addition, the Cmax stood at 0.0251 ± 0.0038 µg/mL in series [1] (in vivo, 10 ug/kg, IV); 1.04 ± 0.105 µg/mL in series [1] (in vivo, 100 ug/kg, IV); 0.108 ± 0.0167 µg/mL in series [1] (in vivo, 100 ug/kg, SC); 0.618 ± 0.0789 µg/mL in series [1] (in vivo, 1000 ug/kg, SC); 7.6 ± 0.488 µg/mL in series [1] (in vivo, IV, 1,000 μg/kg). Besides, the clearance was 1.8 ± 0.184 L/h/kg in series [1] (in vivo, 10 ug/kg, IV); 0.194 ± 0.0156 L/h/kg in series [1] (in vivo, 100 ug/kg, IV); 0.205 ± 0.0108 L/h/kg in series [1] (in vivo, IV, 1,000 μg/kg). Besides, the half-life came to 9.2 min in series [1] (in vivo, 10 ug/kg, intravenous, 10 μg/kg, single exponential clearance, read-out: half-life); 20.7 min in series [1] (in vivo, 100 ug/kg, intravenous, 100 μg/kg, single exponential clearance, read-out: half-life); 26.7 min in series [1] (in vivo, intravenous, 1,000 μg/kg, single exponential clearance, read-out: half-life); 62.6 ± 5.9 min in series [1] (male, Sprague-Dawley Crl:CD, plasma, 100 ug/kg, SC, 100 μg/kg, read-out: t1/2β (terminal)); 72.1 ± 14.8 min in series [1] (male, Sprague-Dawley Crl:CD, plasma, 1000 ug/kg, SC, 1000 μg/kg, read-out: t1/2β (terminal)). Further, the bioavailability in series [1] (in vivo, 100 ug/kg, subcutaneous) came to 41%; in series [1] (in vivo, subcutaneous, 1,000 μg/kg) it was 37%. Besides, the t1/2α in series [1] (IV, 10 μg/kg) was 9.22 ± 1.05 min; in series [1] (IV, 100 μg/kg), 20.71 ± 0.92 min; in series [1] (IV, 1,000 μg/kg) it was 26.69 ± 0.62 min; in series [1] (SC, 100 μg/kg), 6.96 ± 3.44 min; in series [1] (SC, 1000 μg/kg), 21.56 ± 8.15 min. In addition, the Bioavail. was determined as 41 ± 6% in series [1] (SC, 100 μg/kg) and 37 ± 5% in series [1] (SC, 1000 μg/kg). Also, the CL in series [1] (SC, 100 μg/kg) came to 0.467 ± 0.0606 L/h/kg; in series [1] (SC, 1000 μg/kg), 0.558 ± 0.063 L/h/kg. The “dose proportionality of pharmacokinetics” value in series [1] (intravenously or subcutaneously, between 100 and 1,000 μg/kg) is listed as “dose proportional”.
For “III: CRF-related peptide Ucn III, also known as stresscopin (FTLSLDVPTNIMNLLFNIAKAKNLRAQAAANAHLMAQI; ends and bridges not checked; UniProt Q969E3 120-157, looked up)”, the “affinity for the CRF R1 subtype” value in the series with CRF R1 was “little affinity”.
“Ucn II: CRF-related peptide urocortin II, 26% sequence homology to CRF (IVLSLDVPIGLLQILLEQARARAAREQATTNARILARVGHC; ends and bridges not checked; UniProt Q96RP3 72-112, looked up)”: in the series with CRF R1, the “affinity for the CRF R1 subtype” value was “little affinity”.
